Biological target: Recombinant human ATX (Homo sapiens (Human), UniProt Q13822)
Test: ATX inhibition assay (choline release, Amplex Red fluorescence)
Type: biochemical
Details: ATX 10 nM, LPC 18:1 10 μM, 37° C., 20 min pre-incubation; mean of n≧2
Method in brief: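 Activity was taken from the slope of resorufin fluorescence (530/590 nm, read every 2 min for 40 min at 37 °C) produced by choline liberated from 10 μM oleoyl LPC.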

| IC50 [nM] | SMILES |
| --- | --- |
| 75 | C/C(=C\C(=O)N1CCC(c2nnc(C)o2)CC1)c1ccc(Cl)cc1Cn1nnc(C)n1 [Example 39, (E)-3-(4-Chloro-2-((5-methyl-2H-tetrazol-2-yl)methyl)phenyl)-1-(4-(5-methyl-1,3,4-oxadiazol-2-yl)piperidin-1-yl)but-2-en-1-one] |
| 45 | Cc1nnn(Cc2cc(Cl)ccc2/C=C/C(=O)N2CC3CCC2CN3Cc2coc(C)n2)n1 (stereo not drawn) [Example 61, (E)-3-(4-Chloro-2-((5-methyl-2H-tetrazol-2-yl)methyl)phenyl)-1-(5-((2-methyloxazol-4-yl)methyl)-2,5-diazabicyclo[2.2.2]octan-2-yl)prop-2-en-1-one] |
| 120 | Cc1noc(C2CCCCN2C(=O)/C=C/c2ccc(C(F)(F)F)cc2Cn2nnc(C)n2)n1 (single isomer, unassigned) [Example 5b, (R,E)-1-(2-(3-methyl-1,2,4-oxadiazol-5-yl)piperidin-1-yl)-3-(2-((5-methyl-2H-tetrazol-2-yl)methyl)-4-(trifluoromethyl)phenyl)prop-2-en-1-one or (S,E)-1-(2-(3-methyl-1,2,4-oxadiazol-5-yl)piperidin-1-yl)-3-(2-((5-methyl-2H-tetrazol-2-yl)methyl)-4-(trifluoromethyl)phenyl)prop-2-en-1-one] |
| 11 | Cc1nnn(Cc2cc(Cl)ccc2/C=C/C(=O)N2CCCCC2c2nc(C(C)C)no2)n1 (racemic) [Example 30, (rac)-(E)-3-(4-Chloro-2-((5-methyl-2H-tetrazol-2-yl)methyl)phenyl)-1-(2-(3-isopropyl-1,2,4-oxadiazol-5-yl)piperidin-1-yl)prop-2-en-1-one] |
| 24 | Cc1nnn(Cc2cc(Cl)ccc2/C=C/C(=O)N2CCC(n3nnc(C)n3)CC2)n1 [Example 17, (E)-3-(4-Chloro-2-((5-methyl-2H-tetrazol-2-yl)methyl)phenyl)-1-(4-(5-methyl-2H-tetrazol-2-yl)piperidin-1-yl)prop-2-en-1-one] |
| 42 | Cc1nnn(Cc2cc(Cl)ccc2/C=C/C(=O)N2CCN(Cc3cc(-c4ccccc4)nn3C)CC2)n1 [Example 140.6, (E)-3-(4-Chloro-2-((5-methyl-2H-tetrazol-2-yl)methyl)phenyl)-1-(4-((1-methyl-3-phenyl-1H-pyrazol-5-yl)methyl)piperazin-1-yl)prop-2-en-1-one] |
| 28 | COC(=O)C1CCN(C(=O)/C=C/c2ccc(Cl)cc2Cn2nnc(C)n2)CC1 [Example 128, (E)-Methyl 1-(3-(4-chloro-2-((5-methyl-2H-tetrazol-2-yl)methyl)phenyl)acryloyl)piperidine-4-carboxylate] |
| 85 | Cc1nnn(Cc2cc(Cl)ccc2/C=C/C(=O)N2CCCC[C@H]2C)n1 [Example 49.14, (R,E)-3-(4-Chloro-2-((5-methyl-2H-tetrazol-2-yl)methyl)phenyl)-1-(2-methylpiperidin-1-yl)prop-2-en-1-one] |
| 16 | Cc1noc(CN2CCN(C(=O)/C=C/c3ccc(C(F)(F)F)cc3Cn3nnc(C)n3)CC2)n1 [Example 88, (E)-1-(4-((3-Methyl-1,2,4-oxadiazol-5-yl)methyl)piperazin-1-yl)-3-(2-((5-methyl-2H-tetrazol-2-yl)methyl)-4-(trifluoromethyl)phenyl)prop-2-en-1-one] |
| 9.5 | Cc1noc(C2CCCCN2C(=O)/C=C/c2ccc(Cl)cc2Cn2nnc(C)n2)n1 (single isomer, unassigned) [Example 23a, (R)- or (S)-(E)-3-(4-Chloro-2-((5-methyl-2H-tetrazol-2-yl)methyl)phenyl)-1-(2-(3-methyl-1,2,4-oxadiazol-5-yl)piperidin-1-yl)prop-2-en-1-one] |
| 4.6 | Cc1nnn(Cc2cc(Cl)ccc2/C=C/C(=O)N2CCC(C(O)c3ccc(Cl)cc3)CC2)n1 (single isomer, unassigned) [Example 66b, ((R or S), E)-3-(4-Chloro-2-((5-methyl-2H-tetrazol-2-yl)methyl)phenyl)-1-(4-((4-chlorophenyl)(hydroxy)methyl)piperidin-1-yl)prop-2-en-1-one] |
| 129 | Cc1nnn(Cc2cc(Cl)ccc2/C=C/C(=O)N2CCC(N3CCNC3=O)CC2)n1 [Example 49.3, (E)-1-(1-(3-(4-Chloro-2-((5-methyl-2H-tetrazol-2-yl)methyl)phenyl)acryloyl)piperidin-4-yl)imidazolidin-2-one] |
| 23 | Cc1nnn(Cc2cc(C(F)(F)F)ccc2/C=C/C(=O)N2C[C@@H](F)C[C@H]2CO)n1 [Example 131, (E)-1-((2S,4S)-4-Fluoro-2-(hydroxymethyl)pyrrolidin-1-yl)-3-(2-((5-methyl-2H-tetrazol-2-yl)methyl)-4-(trifluoromethyl)phenyl)prop-2-en-1-one] |
| 354 | Cc1nnn(Cc2cc(Cl)ccc2/C=C/C(=O)N2CCCC(C(N)=O)C2)n1 (stereo not drawn) [Example 49.8, (E)-1-(3-(4-Chloro-2-((5-methyl-2H-tetrazol-2-yl)methyl)phenyl)acryloyl)piperidine-3-carboxamide] |
| 21 | Cc1nnn(Cc2cc(C(F)F)ccc2/C=C/C(=O)N2CCC(Cc3nnc(C)o3)CC2)n1 [Example 59, (E)-3-(4-(Difluoromethyl)-2-((5-methyl-2H-tetrazol-2-yl)methyl)phenyl)-1-(4-((5-methyl-1,3,4-oxadiazol-2-yl)methyl)piperidin-1-yl)prop-2-en-1-one] |
| 81 | Cc1nnn(Cc2cc(C(F)(F)F)ccc2/C=C/C(=O)N2CCC[C@H]2CO)n1 [Example 133, (S,E)-1-(2-(Hydroxymethyl)pyrrolidin-1-yl)-3-(2-((5-methyl-2H-tetrazol-2-yl)methyl)-4-(trifluoromethyl)phenyl)prop-2-en-1-one] |
| 43 | Cc1nnn(Cc2cc(Cl)ccc2/C=C/C(=O)N2CCN(Cc3nc4ccccc4n3C)CC2)n1 [Example 140.4, (E)-3-(4-Chloro-2-((5-methyl-2H-tetrazol-2-yl)methyl)phenyl)-1-(4-((1-methyl-1H-benzo[d]imidazol-2-yl)methyl)piperazin-1-yl)prop-2-en-1-one] |
| 110 | Cc1nnn(Cc2cc(Cl)ccc2/C=C/C(=O)N2CCN(C(=O)c3ccco3)CC2)n1 [Example 49.20, (E)-3-(4-Chloro-2-((5-methyl-2H-tetrazol-2-yl)methyl)phenyl)-1-(4-(furan-2-carbonyl)piperazin-1-yl)prop-2-en-1-one] |
| 654 | Cc1nnn(Cc2cc(F)ccc2/C=C/C(=O)N2CCC(Cc3nnc(C)o3)CC2)n1 [Example 41, (E)-3-(4-Fluoro-2-((5-methyl-2H-tetrazol-2-yl)methyl)phenyl)-1-(4-((5-methyl-1,3,4-oxadiazol-2-yl)methyl)piperidin-1-yl)prop-2-en-1-one] |
| 3.6 | CCc1nnc(C2CCN(C(=O)/C=C/c3ccc(C(F)(F)F)cc3Cn3nnc(C)n3)CC2)o1 [Example 92, (E)-1-(4-(5-Ethyl-1,3,4-oxadiazol-2-yl)piperidin-1-yl)-3-(2-((5-methyl-2H-tetrazol-2-yl)methyl)-4-(trifluoromethyl)phenyl)prop-2-en-1-one] |
| 5.8 | Cc1nnn(Cc2cc(C(F)(F)F)ccc2/C=C/C(=O)N2CCC(c3noc(C)n3)CC2)n1 [Example 4, (E)-1-(4-(5-Methyl-1,2,4-oxadiazol-3-yl)piperidin-1-yl)-3-(2-((5-methyl-2H-tetrazol-2-yl)methyl)-4-(trifluoromethyl)phenyl)prop-2-en-1-one] |

Source: patent publication US9763957B2, “Autotaxin inhibitors” (Novartis AG, priority 2013, dated 2017)
